Experimental data taken from US20150258101A1 (Proximagen Limited, priority 2014, published 2015).

Biological target: T1, purified recombinantly expressed human SSAO (Homo sapiens, UniProt Q16853)
T1 construct: made in house
T1 sequence (Q16853 1-763): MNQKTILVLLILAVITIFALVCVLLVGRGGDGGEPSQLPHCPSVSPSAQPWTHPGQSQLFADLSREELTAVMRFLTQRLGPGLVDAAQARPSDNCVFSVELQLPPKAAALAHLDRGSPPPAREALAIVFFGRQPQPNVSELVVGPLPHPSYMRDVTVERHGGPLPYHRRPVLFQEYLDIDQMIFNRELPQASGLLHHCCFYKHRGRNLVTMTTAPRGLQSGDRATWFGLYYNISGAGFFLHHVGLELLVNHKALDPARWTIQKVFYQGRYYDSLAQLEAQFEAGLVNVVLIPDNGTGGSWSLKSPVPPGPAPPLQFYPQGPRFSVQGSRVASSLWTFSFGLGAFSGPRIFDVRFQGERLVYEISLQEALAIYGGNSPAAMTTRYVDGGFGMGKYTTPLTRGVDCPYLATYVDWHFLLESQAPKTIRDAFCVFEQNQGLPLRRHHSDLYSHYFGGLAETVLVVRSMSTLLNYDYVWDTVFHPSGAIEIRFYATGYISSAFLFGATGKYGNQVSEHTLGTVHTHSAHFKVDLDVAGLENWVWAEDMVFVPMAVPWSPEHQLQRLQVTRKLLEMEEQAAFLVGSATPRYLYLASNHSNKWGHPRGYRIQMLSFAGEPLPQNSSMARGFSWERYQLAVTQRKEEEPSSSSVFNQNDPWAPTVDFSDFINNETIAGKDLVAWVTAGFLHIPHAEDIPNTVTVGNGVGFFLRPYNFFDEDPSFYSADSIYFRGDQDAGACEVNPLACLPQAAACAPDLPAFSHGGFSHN
Assay: SSAO enzyme inhibition assay (benzylamine substrate; hydrogen peroxide/HRP-coupled or 14C aldehyde detection)
Format: biochemical
Settings: SSAO inhibitory activity, RT
Procedure: All primary assays were performed at RT. with purified recombinantly expressed human SSAO. Enzyme was prepared essentially as described in Öhman et al. (Protein Expression and Purification 46 (2006) 321-331). In addition, secondary- and selectivity assays were performed using SSAO prepared from various tissues or purified rat recombinant SSAO. The enzyme activity was assayed with benzylamine as substrate by measuring either benzaldehyde production, using ^14C-labeled substrate, or by utilizing the production of hydrogen peroxide in a horseradish peroxidase (HRP) coupled reaction. Briefly, test compounds were dissolved in dimethyl sulfoxide (DMSO) to a concentration of 10 mM. Dose-response measurements were assayed by either creating 1:10 serial dilutions in DMSO to produce a 7 point curve or by making 1:3 serial dilutions in DMSO to produce 11 point curves.
In a horseradish peroxidase (HRP) coupled reaction, hydrogen peroxide oxidation of 10-acetyl-3,7-dihydroxyphenoxazine produced resorufin, which is a highly fluorescent compound (Zhout and Panchuk-Voloshina. Analytical Biochemistry 253 (1997) 169-174; Amplex® Red Hydrogen Peroxide/peroxidase Assay kit, Invitrogen A22188). Enzyme and compounds in 50 mM sodium phosphate, pH 7.4 were set to pre-incubate in flat-bottomed microtiter plates for approximately 15 min before initiating the reaction by addition of a mixture of HRP, benzylamine and Amplex reagent. Benzylamine concentration was fixed at a concentration corresponding to the Michaelis constant, determined using standard procedures. Fluorescence intensity was then measured at several time points during 1-2 h, exciting at 544 nm and reading the emission at 590 nm. For the human SSAO assay final concentrations of the reagents in the assay wells were: SSAO enzyme 1 ug/ml, benzylamine 100 uM, Amplex reagent 20 uM, HRP 0.1 U/mL and varying concentrations of test compound. The inhibition was measured as % decrease of the signal compared to a control without inhibitor (only diluted DMSO). The background signal from a sample containing no SSAO enzyme was subtracted from all data points. Data was fitted to a four parameter logistic model and IC50 values were calculated using the Graph Pad Prism 4 or XLfit 4 programs.
SSAO activity was assayed using 14C-labeled benzylamine and analysed by measuring radioactive benzaldehyde. In a white 96-well optiplate (Packard), 20 uL of diluted test compound was pre-incubated at room temperature with 20 uL SSAO enzyme for approximately 15 min with continuous agitation. All dilutions were made with PBS. The reaction was initiated by adding 20 uL of the benzylamine substrate solution containing [7-14C] Benzylamine hydrochloride (CFA589, GE Healthcare). The plate was incubated for 1 h as above after which the reaction was stopped by acidification (10 uL 1M aq HCl). Then 90 uL Micro Scint-E solution (Perkin-Elmer) was added to each well and the plate was continuously mixed for 15 min. Phase separation occurred instantly and activity was read in a Topcount scintillation counter (Perkin-Elmer). In the final reaction well, the human recombinant SSAO concentration was 10 ug/ml. In order to optimize sensitivity, the substrate concentration was decreased as compared to the HRP coupled assay in order to get a higher fraction of radioactive product. In the human SSAO assay, benzylamine concentration was 40 uM (0.2 uCi/mL). Data was analysed as above.

IC50	Compound
< 50 nM	Cn1cncc1-c1cc2ccncc2n1-c1ccc(Cl)cc1 [Example 136, 5-[1-(4-Chlorophenyl)-1H-pyrrolo[2,3-c]pyridin-2-yl]-1-methyl-1H-imidazole]
< 50 nM	COCCCNc1ncc(-c2nc3ccncc3n2-c2ccc(C)cc2)cn1 [Example 37, N-(3-Methoxypropyl)-5-[3-(4-methylphenyl)-3H-imidazo [4,5-c]pyridin-2-yl]pyrimidin-2-amine]
50 to 200 nM	FC(F)(F)c1ccc(-n2c(-c3ccc(N4CCOCC4)nc3)nc3ccncc32)cc1 [Example 66, 4-(5-{3-[4-(Trifluoromethyl)phenyl]-3H-imidazo[4,5-c]pyridin-2-yl}pyridin-2-yl)morpholine]
< 50 nM	Fc1ccc(-n2c(-c3ccc(N4CCOCC4)nc3)nc3ccncc32)c(F)c1 [Example 41, 4-{5-[3-(2,4-Difluorophenyl)-3H-imidazo[4,5-c]pyridin-2-yl]pyridin-2-yl}morpholine]
< 50 nM	Fc1ccc(-n2c(-c3cnc(NCC4CC4)nc3)nc3ccncc32)cc1 [Example 9, N-(Cyclopropylmethyl)-5-[3-(4-fluorophenyl)-3H-imidazo [4,5-c]pyridin-2-yl]pyrimidin-2-amine]
50 to 200 nM	O=c1cc(-c2nc3ccncc3n2-c2ccc(Cl)cc2F)ccn1C1CC1 [Example 116, 4-[3-(4-Chloro-2-fluorophenyl)-3H-imidazo[4,5-c]pyridin-2-yl]-1-cyclopropyl-1,2-dihydropyridin-2-one]
200 to 1200 nM	Nc1ncc(-c2nc3ccncc3n2-c2ccc(Cl)cc2)cn1 [Example 31, 5-[3-(4-Chlorophenyl)-3H-imidazo[4,5-c]pyridin-2-yl] pyrimidin-2-amine]
< 50 nM	Clc1ccc(-n2c(-c3ccccn3)cc3ccncc32)cc1 [Example 121, 2-[1-(4-Chlorophenyl)-1H-pyrrolo[2,3-c]pyridin-2-yl]pyridine]
50 to 200 nM	Brc1ccc(-n2c(-c3cnc(N4CCOCC4)nc3)nc3ccncc32)cc1 [Example 59, 4-{5-[3-(4-Bromophenyl)-3H-imidazo[4,5-c]pyridin-2-yl]pyrimidin-2-yl}morpholine]
50 to 200 nM	Cc1cc(N)ncc1-c1cc2ccncc2n1-c1ccc(Cl)cc1 [Example 141, 5-[1-(4-Chlorophenyl)-1H-pyrrolo[2,3-c]pyridin-2-yl]-4-methylpyridin-2-amine; bis(trifluoroacetic acid)]
< 50 nM	Cn1c(-c2cc3ccncc3n2-c2ccc(Cl)cc2)cccc1=O [Example 145, 6-[1-(4-Chlorophenyl)-1H-pyrrolo[2,3-c]pyridin-2-yl]-1-methyl-1,2-dihydropyridin-2-one]
< 50 nM	Clc1ccc(-n2c(-c3cnccn3)cc3ccncc32)cc1 [Example 124, 2-[1-(4-Chlorophenyl)-1H-pyrrolo[2,3-c]pyridin-2-yl]pyrazine]
200 to 1200 nM	CN1CCN(C(=O)c2ccc(-c3cc4ccncc4n3-c3ccc(Cl)cc3)cc2)CC1 [Example 125, 1-({4-[1-(4-Chlorophenyl)-1H-pyrrolo[2,3-c]pyridin-2-yl]phenyl}carbonyl)-4-methylpiperazine]
< 50 nM	Cc1nc(N2CCOCC2)ncc1-c1nc2ccncc2n1-c1ccc(Cl)cc1F [Example 27, 4-{5-[3-(4-Chloro-2-fluorophenyl)-3H-imidazo [4,5-c]pyridin-2-yl]-4-methylpyrimidin-2-yl} morpholine]
200 to 1200 nM	Cn1cc(-c2nc3ccncc3n2-c2ccc(Cl)cc2)ccc1=O [Example 33, 5-[3-(4-Chlorophenyl)-3H-imidazo[4,5-c]pyridin-2-yl]-1-methyl-1,2-dihydropyridin-2-one]
< 50 nM	Fc1ccc(-n2c(-c3ccc(N4CCOCC4)nc3)nc3ccncc32)c(Cl)c1 [Example 61, 4-{5-[3-(2-Chloro-4-fluorophenyl)-3H-imidazo[4,5-c]pyridin-2-yl]pyridin-2-yl}morpholine]
200 to 1200 nM	Cc1ccc(-n2c(-c3cnc(N4CCOCC4)cc3C)nc3ccncc32)cc1 [Example 97, 4-{4-Methyl-5-[3-(4-methylphenyl)-3H-imidazo[4,5-c]pyridin-2-yl]pyridin-2-yl}morpholine]
50 to 200 nM	CCOCCNc1ncc(-c2nc3ccncc3n2-c2ccc(F)cc2)cn1 [Example 42, N-(2-Ethoxyethyl)-5-[3-(4-fluorophenyl)-3H-imidazo [4,5-c]pyridin-2-yl]pyrimidin-2-amine]
< 50 nM	Cc1cnccc1-c1cc2ccncc2n1-c1ccc(Cl)cc1 [Example 154, 4-[1-(4-Chlorophenyl)-1H-pyrrolo[2,3-c]pyridin-2-yl]-3-methylpyridine]
< 50 nM	CC(=O)N1CCCN(c2ccc(-c3nc4ccncc4n3-c3ccc(F)cc3)cn2)CC1 [Example 87, 1-(4-{5-[3-(4-Fluorophenyl)-3H-imidazo[4,5-c]pyridin-2-yl]pyridin-2-yl}-1,4-diazepan-1-yl)ethan-1-one; bis(trifluoroacetic acid)]
< 50 nM	NC1CCN(c2ccc(-c3nc4ccncc4n3-c3ccc(Cl)cc3)cn2)CC1 [Example 8, 1-{5-[3-(4-Chlorophenyl)-3H-imidazo[4,5-c]pyridin-2-yl]pyridin-2-yl}piperidin-4-amine]
< 50 nM	Fc1ccc(-n2c(-c3ccc(OC4CCOC4)nc3)nc3ccncc32)cc1 (centres unmarked) [Example 112, 5-[3-(4-Fluorophenyl)-3H-imidazo[4,5-c]pyridin-2-yl]-2-(oxolan-3-yloxy)pyridine]
50 to 200 nM	Clc1ccc(-n2c(-c3cncc(Cl)c3)cc3ccncc32)cc1 [Example 150, 3-Chloro-5-[1-(4-chlorophenyl)-1H-pyrrolo[2,3-c]pyridin-2-yl]pyridine]
50 to 200 nM	Fc1ccc(-n2c(-c3ccnc(N4CCOCC4)c3)nc3ccncc32)cc1 [Example 73, 4-{4-[3-(4-Fluorophenyl)-3H-imidazo[4,5-c]pyridin-2-yl]pyridin-2-yl}morpholine]
50 to 200 nM	O=c1cc(-c2nc3ccncc3n2-c2ccc(Cl)cc2F)cc[nH]1 [Example 34, 4-[3-(4-Chloro-2-fluorophenyl)-3H-imidazo[4,5-c]pyridin-2-yl]-1,2-dihydropyridin-2-one]
< 50 nM	Brc1ccc(-n2c(-c3cnc(N4CCOCC4)nc3)cc3ccncc32)cc1 [Example 133, 4-{5-[1-(4-Bromophenyl)-1H-pyrrolo[2,3-c]pyridin-2-yl]pyrimidin-2-yl}morpholine]
< 50 nM	Cc1cc(N2CCOCC2)ncc1-c1nc2ccncc2n1-c1ccc(Cl)cc1F [Example 22, 4-{5-[3-(4-Chloro-2-fluorophenyl)-3H-imidazo [4,5-c]pyridin-2-yl]-4-methylpyridin-2-yl}morpholine]
200 to 1200 nM	Fc1ccc(-n2c(-c3cnc(C4CC4)nc3)nc3ccncc32)cc1 [Example 30, 2-Cyclopropyl-5-[3-(4-fluorophenyl)-3H-imidazo [4,5-c]pyridin-2-yl]pyrimidine]
50 to 200 nM	c1cc2nc(-c3cnc(N4CCOCC4)nc3)n(-c3ccc(C4CC4)cc3)c2cn1 [Example 96, 4-{5-[3-(4-Cyclopropylphenyl)-3H-imidazo[4,5-c]pyridin-2-yl]pyrimidin-2-yl}morpholine]
